Earlier results on one molecule are cited in patent US7442701B2, “Amino-heterocycles as VR-1 antagonists for treating pain” (Merck Sharp & Dohme Ltd., priority 2002, dated 2008).

In this data set the target is VR1 (Rattus norvegicus, UniProt O35433). To be noted: Wahl et al., Mol. Pharmacol., 59:9, 2001.

Molecules are shown by their SMILES.

Chain of VR1 (O35433 whole entry): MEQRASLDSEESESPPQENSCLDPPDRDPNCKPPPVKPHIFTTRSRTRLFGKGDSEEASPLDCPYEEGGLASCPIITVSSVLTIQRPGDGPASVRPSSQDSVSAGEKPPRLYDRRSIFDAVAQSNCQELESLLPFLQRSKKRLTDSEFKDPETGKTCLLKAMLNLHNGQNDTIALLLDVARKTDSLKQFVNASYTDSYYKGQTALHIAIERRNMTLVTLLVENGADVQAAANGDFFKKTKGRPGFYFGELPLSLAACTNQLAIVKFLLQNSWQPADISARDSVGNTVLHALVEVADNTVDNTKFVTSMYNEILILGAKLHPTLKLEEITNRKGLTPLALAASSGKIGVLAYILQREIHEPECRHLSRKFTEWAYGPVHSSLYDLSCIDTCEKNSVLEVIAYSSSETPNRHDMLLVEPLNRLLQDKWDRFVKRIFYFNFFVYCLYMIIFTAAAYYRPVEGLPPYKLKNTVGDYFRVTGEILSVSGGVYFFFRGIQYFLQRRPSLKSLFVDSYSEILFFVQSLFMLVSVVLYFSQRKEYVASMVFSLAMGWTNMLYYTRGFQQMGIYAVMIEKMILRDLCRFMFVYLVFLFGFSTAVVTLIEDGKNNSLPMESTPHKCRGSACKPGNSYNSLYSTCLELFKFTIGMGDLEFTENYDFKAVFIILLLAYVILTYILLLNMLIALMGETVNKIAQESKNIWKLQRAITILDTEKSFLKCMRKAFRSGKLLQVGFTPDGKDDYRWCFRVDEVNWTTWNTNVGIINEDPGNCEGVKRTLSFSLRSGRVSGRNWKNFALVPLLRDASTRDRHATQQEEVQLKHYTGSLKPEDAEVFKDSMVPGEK

Turning to `C=C(C)[C@]12C[C@@H](C)[C@@]34O[C@](Cc5ccccc5)(O[C@@H]1[C@@H]3C=C(COC(=O)Cc1cc(I)c(O)c(OC)c1)C[C@]1(O)C(=O)C(C)=C[C@@H]41)O2` [Iodo-resiniferatoxin], the “antagonist of VR1” value was “nanomolar antagonist”.
